According to patent US20230172957A1, “USE OF ASTRAGALUS MEDICINAL COMPOSITION FOR PREPARING DRUG FOR ENHANCING CANCER THERAPY” (PHYTOHEALTH CORPORATION, priority 2020, published 2023):
Where “and” joins values, the source holds several entries; their conditions need not be identical. Equal values may be shown once.

Key:
OVCAR cells = test: Cell viability of ovarian cancer cell line measured by MTS (poisonous dose test and chemotherapeutic synergism); type: cell-based
Protocol: (1) Poisonous dose test (the chemotherapy drug dose for inhibiting the cell growth and leaving 60˜70% of growth capability is selected for subsequent test). (2) The cells are inoculated in 96-well plate and cultured for 24 hours. (3) Test drugs at different concentrations are added in, the test concentrations of the r-APS are 0, 2 and 4 mg/ml, the test concentrations of the astragalus pharmaceutical composition comprising the r-APS and the mannose (r-APS+mannose) are 0, 5 and 10 mg/ml. (4) The dose with a poisoning effect on 35-40% of individual cells is selected as chemotherapy drug dose. (5) The cell viability is tested in 48 and 72 hours respectively after addition. (6) Experiment on chemotherapeutic synergism of the r-APS and the astragalus pharmaceutical composition comprising the r-APS and the mannose (r-APS+mannose). (7) The cells are inoculated in 96-well plate and cultured for 24 hours. (8) The r-APS or the astragalus pharmaceutical composition comprising the r-APS and the mannose (r-APS+mannose) in combination with chemotherapy drug are cultured for 48 hours, the dose of the r-APS and the astragalus pharmaceutical composition comprising the r-APS and the mannose (r-APS+mannose) is three poisonous doses for test, the cell viability is measured by MTS in 48 hours.

HCT116 cells = test: Cell viability of colorectal cancer cells measured by MTS (poisonous dose test and chemotherapeutic synergism); type: cell-based
Protocol: (1) First of all, poisonous dose test (the chemotherapy drug dose for inhibiting the cell growth and leaving 60˜70% of growth capability is selected for subsequent test) (2) The cells are inoculated in 96-well plate and cultured for 24 hours. (3) Test drugs at different concentrations are added in, the test concentrations of the r-APS are 0, 2 and 4 mg/ml, the test concentrations of the astragalus pharmaceutical composition comprising the r-APS and the mannose (r-APS+mannose) are 0, 5 and 10 mg/ml. (4) The dose with a poisoning effect on 35˜40% of individual cells is selected as chemotherapy drug dose. (5) The cell viability is tested in 48 and 72 hours respectively after addition. (6) Experiment on chemotherapeutic synergism of the r-APS and the astragalus pharmaceutical composition comprising the r-APS and the mannose (r-APS+mannose): (7) The cells are inoculated in 96-well plate and cultured for 24 hours. (8) The r-APS or the astragalus pharmaceutical composition comprising the r-APS and the mannose (r-APS+mannose) in combination with chemotherapy drug are cultured for 48 hours, the doses of the r-APS and the astragalus pharmaceutical composition comprising the r-APS and the mannose (r-APS+mannose) are selected four poisonous doses for test, and then the cell viability is measured by MTS in 48 hours.

[1] = Olaparib 0.2M, poisonous dose test
[2] = Olaparib 0.4M, poisonous dose test
[3] = Olaparib 0.6M, poisonous dose test
[4] = Olaparib 0.8M, poisonous dose test
[5] = Olaparib 1M, poisonous dose test
[6] = Olaparib alone (0 mg/ml test drug), 48 hours
[7] = Regorafenib 0.01 mM alone (0 mg/ml test drug), HCT116, 48 hours
[8] = Regorafenib 0.01 mM, HCT116, poisonous dose test

Compound: O=C(c1cc(Cc2n[nH]c(=O)c3ccccc23)ccc1F)N1CCN(C(=O)C2CC2)CC1 [Olaparib]
- Cell viability (%) (OVCAR cells; [1]): 100.55%
- Mean value (MEAN) of three repeats (raw reading) (OVCAR cells; [1]): 0.984
- Cell viability (%) (OVCAR cells; [2]): 90.32%
- Mean value (MEAN) of three repeats (raw reading) (OVCAR cells; [2]): 0.884
- Cell viability (%) (OVCAR cells; [3]): 75.13%
- Mean value (MEAN) of three repeats (raw reading) (OVCAR cells; [3]): 0.735
- cell viability of cancer cells poisoned to (OVCAR cells; Olaparib 0.7M, poisonous dose test): 60%
- Cell viability (%) (OVCAR cells; [4]): 48.72%
- Mean value (MEAN) of three repeats (raw reading) (OVCAR cells; [4]): 0.477
- Cell viability (%) (OVCAR cells; [5]): 18.74%
- Mean value (MEAN) of three repeats (raw reading) (OVCAR cells; [5]): 0.183
- Cell viability (%) (OVCAR cells; [6]): 60.189% and 61.4%
- Mean value (MEAN) of three repeats (raw reading) (OVCAR cells; [6]): 0.595 and 0.605

Compound: CNC(=O)c1cc(Oc2ccc(NC(=O)Nc3ccc(Cl)c(C(F)(F)F)c3)c(F)c2)ccn1 [Regorafenib]
- viability at 0.01 µM (HCT116 cells; Homo sapiens, HCT-116, Regorafenib 0.00001 mM, HCT116, poisonous dose test): 110%
- viability at 0.1 µM (HCT116 cells; Homo sapiens, HCT-116, Regorafenib 0.0001 mM, HCT116, poisonous dose test): 107%
- viability at 1 µM (HCT116 cells; Homo sapiens, HCT-116, Regorafenib 0.001 mM, HCT116, poisonous dose test): 94.4%
- viability at 10 µM (HCT116 cells; Homo sapiens, HCT-116, Regorafenib 0.01 mM, HCT116, poisonous dose test): 60%
- viability at 100 µM (HCT116 cells; Homo sapiens, HCT-116, Regorafenib 0.1 mM, HCT116, poisonous dose test): 9.2%
- Mean value (MEAN) of three repeats (raw reading) (HCT116 cells; Regorafenib 0.00001 mM, HCT116, poisonous dose test): 1.103
- Mean value (MEAN) of three repeats (raw reading) (HCT116 cells; Regorafenib 0.0001 mM, HCT116, poisonous dose test): 1.075
- Mean value (MEAN) of three repeats (raw reading) (HCT116 cells; Regorafenib 0.001 mM, HCT116, poisonous dose test): 0.950
- Cell viability (%) (HCT116 cells; [7]): 71.4% and 71.43%
- Mean value (MEAN) of three repeats (raw reading) (HCT116 cells; [7]): 0.641
- Cell viability (%) (HCT116 cells; [8]): 63.5%
- Mean value (MEAN) of three repeats (raw reading) (HCT116 cells; [8]): 0.639
- Mean value (MEAN) of three repeats (raw reading) (HCT116 cells; Regorafenib 0.1 mM, HCT116, poisonous dose test): 0.093
